What was measured:
Hep3-B = assay: [3H]thymidine incorporation assay, Hep3-B; format: cell-based, human; conditions: 5 days
Protocol: (§1) HepG2, Hep3-B, Hep1-6, SKHEP-1, PLC/PRF/5, and HTC cells were obtained from European Collection of Cell Cultures (ECACC; U.K), Novikoff was obtained from Cancer Research Centre (DKFZ) Heidelberg, Germany. Cells were cultured in MEM or DMEM supplemented with 10% FBS, 50 units/ml penicillin, 50 units/ml streptomycin, 25 μg/ml amphotericin B (Gibco, Grand Island, N.Y.) and maintained subconfluent at 37° C. in humidified incubators containing 5% CO2. Albendazole (Sigma, Australian subsidiary) was dissolved in absolute ethanol at concentrations that were 1000-fold higher than the final medium concentration.

SKHEP-1 = assay: [3H]thymidine incorporation assay, SKHEP-1; format: cell-based, human
Protocol: as §1

PLC/PRF/5 = assay: [3H]thymidine incorporation assay, PLC/PRF/5; format: cell-based, human; conditions: 5 days
Protocol: as §1

Novikoff = assay: [3H]thymidine incorporation assay, Novikoff; format: cell-based, rat; conditions: 5 days
Protocol: as §1

HTC = assay: [3H]thymidine incorporation assay, HTC; format: cell-based, rat; conditions: 5 days
Protocol: as §1

SKHEP-1 cells = assay: Cell counts (trypan blue exclusion); format: cell-based, human
Protocol: SKHEP-1 cells (2.5×10^4) were plated in six well plates. The cell treatment procedure was as described for the thymidine assay. At the end of the treatment period (1, 3 or 5 days), cells were trypsinized and counted with a hemocytometer using the trypan blue exclusion method. In all experiments, cells treated with the medium containing 0.1% ethanol were taken as the control for albendazole treated cells. All counts were obtained in quadruplicate and each experiment was repeated at least twice.

[1] = system: SKHEP-1 subcutaneous tumor; assay: Tumor formation in nude mice; format: in vivo, BALB/c Nu/Nu mice; conditions: for maximum proliferation index (MPI), Ki-67: mean±s.e.m.
Protocol: 6 to 10 weeks old male BALB/c Nu/Nu mice (Animal Resources Center, Perth, Australia) were inoculated subcutaneously with 10^6 SKHEP-1 cells into the right flank. 24 hours after inoculation animals were randomly assigned to one of the treatment groups (n=10 per group), receiving 25, 50 or 150 mg/kg twice daily oral albendazole suspended in sesame oil for 20 days.
The control group was treated with the vehicle (sesame oil). Using vernier calipers, tumor diameter (mm) was measured on day eight and then every three days up to day 20-post tumor cell inoculation. Tumor volumes were calculated using the formula: ab^2/2 where a and b are the […] diameters in millimeters, respectively and a piece of the tumor was preserved in paraffin for immunohistochemical determination of maximum proliferation index (MPI). Here, after fixation, the specimen was processed for the detection of Ki-67 antigen with the monoclonal antibody MIB1 according to the method described by McCormick.
The animal model was chosen on the basis of SKHEP-1 being the most tumorigenic human liver cancer cell line in nude mice and previous experience with the model.

NIH:OVCAR-3 [2] = assay: Thymidine assay, ovarian cancer cell line; format: cell-based, human
Protocol: To study the feasibility of using albendazole in the treatment of peritoneal disease, the human ovarian cancer cell line NIH:OVCAR-3 was selected. This is a cell line that grows quite slowly but is tumorogenic in nude mice therefore allowing for the drug to be studied under both in-vitro and in-vivo conditions.
After finding the right conditions for the growth of cells in culture, cells were treated for 5 days with various concentrations of albendazole.

NIH:OVCAR-3 [3] = assay: Cell count, ovarian cancer cell line; format: cell-based, human; conditions: OVCAR-3, 0.1 and 1 micromoles/L, evident from day 1
Protocol: Cells were treated with either the medium alone (control) or 0.1 and 1 micromoles/L of albendazole for 0, 1, 3, 6 or 10 days and the number of viable cells counted. […] This was evident from day 1 after the treatment

[4] = system: ovarian cancer cells (NIH:OVCAR-3); assay: DNA laddering (apoptosis), ovarian cancer cells; format: cell-based, human
Protocol: To find out the way albendazole works as an anticancer drug, a large variety of tests can be performed. One of the first is to see if albendazole induces apoptosis. This again is tested in several ways, one of the most common is to check for DNA laddering. […] This is the first time that the induction of apoptosis by albendazole has been reported.

LOVO cells = assay: DNA laddering (apoptosis), LOVO; format: cell-based, human; conditions: 1 μM, 16 hours
Excerpt: Similar results were also obtained with the human colorectal cell line LOVO.

HepG2 = assay: Combination with methimazole (MT), HepG2 growth; format: cell-based; conditions: HepG2, albendazole alone 0.25, 0.1 and 0.01uM, 5 days
Protocol: The effect of inhibition of metabolism of albendazole on its antiproliferative activity was investigated using […] and the methimazole as an inhibitor of albendazole
5000 cells each of HepG2 and S EP1 were plated into 24 wells plates and treated for 5 days with various concentrations of albendazole alone or together with MT.

HCC cell lines = assay: [3H]thymidine incorporation, all HCC cell lines (summary); conditions: 1000 nM albendazole
Protocol: For the study of [^3H]thymidine incorporation, adherent cells (5-10×10^4) were plated onto 24-well Corning tissue culture dishes and were exposed to culture medium (5% FBS) containing the vehicle (0.1% ethanol) or different concentrations of albendazole (10^−8 to 10^−6 M). For Novikoff, a detached rat cell line, 2500 cells were suspended in 2 ml of DMEM (5% FBS) and kept under the same condition as for attached cells. Media were replaced with fresh media on alternate days. At the end of the treatment period (5 days), cell cultures were assayed for thymidine incorporation by the addition of 0.5 μCi of [^3H]thymidine (60 Ci/mmol. ICN Biochem, Irvine, Calif.) to each well for the last 4 h of culture. The amount of radioactivity incorporated into cells was determined using a β-scintillation counter. […] For the recovery experiments, SKHEP-1 cells were treated for 1 day with different concentrations of albendazole and then either assayed for [^3H]thymidine incorporation or the medium was replaced and the cells treated with fresh medium with out the drug for a further 4 days at the end of which, [^3H] thymidine incorporation assay was performed.
[^3H]Thymidine incorporation assay was used to determine the effect of albendazole on cell proliferation in a number of human (HepG2, Hep3-B, PLC/PRF/5, SKHEP-1), rat (HTC and Novikoff) and mice (Hep1-6) HCC cell lines.

In the case of `CCCSc1ccc2nc(NC(=O)OC)[nH]c2c1` [albendazole, methyl 5-propylthio-1H-benzimidazole-2-yl carbamate], the “[3H]thymidine incorporation” value (Hep3-B; albendazole 10 nM) is reported as 105.7 ± 8.6 % control, the “[3H]thymidine incorporation” value (Hep3-B; albendazole 100 nM) is reported as 68.5 ± 5.7 % control and the “[3H]thymidine incorporation” value (Hep3-B; albendazole 500 nM) is reported as 22.6 ± 1.8 % control. The “[3H]thymidine incorporation” value (Hep3-B; albendazole 1000 nM) was 9.3 ± 0.7 % control, the inhibition at 1 µM (SKHEP-1; Homo sapiens, SK-HEP1, 120 h, SKHEP-1, 1000 nM albendazole, 5 days) was 99.4% and the “thymidine incorporation after 1 day exposure” value (SKHEP-1; SKHEP-1, 1 day, concentrations of 250 nM and over (FIG. 1a)) was “profound inhibition of thymidine incorporation”. The “[3H]thymidine incorporation” value (SKHEP-1; SKHEP-1, albendazole 10 nM, 5 days) was 89.6 ± 6.1 % control, the “[3H]thymidine incorporation” value (SKHEP-1; SKHEP-1, albendazole 100 nM, 5 days) was 63.7 ± 3.1 % control and the “[3H]thymidine incorporation” value (SKHEP-1; SKHEP-1, albendazole 500 nM, 5 days) was 4.5 ± 1.1 % control. The “[3H]thymidine incorporation” value (PLC/PRF/5; PLC/PRF/5, albendazole 10 nM) was 92.7 ± 4.7 % control, the “[3H]thymidine incorporation” value (PLC/PRF/5; PLC/PRF/5, albendazole 100 nM) was 69.4 ± 5.2 % control and the “[3H]thymidine incorporation” value (PLC/PRF/5; PLC/PRF/5, albendazole 500 nM) was 26.9 ± 2.7 % control. The “[3H]thymidine incorporation” value (PLC/PRF/5; PLC/PRF/5, albendazole 1000 nM) was 18.4 ± 2.1 % control, the “[3H]thymidine incorporation” value (Novikoff; albendazole 10 nM) was 96.5 ± 8.8 % control and the “[3H]thymidine incorporation” value (Novikoff; albendazole 100 nM) was 71.6 ± 5.9 % control. The “[3H]thymidine incorporation” value (Novikoff; albendazole 500 nM) was 29.2 ± 3.3 % control, the “[3H]thymidine incorporation” value (Novikoff; albendazole 1000 nM) was 10.3 ± 1.8 % control and the “[3H]thymidine incorporation” value (HTC; albendazole 10 nM) was 98.4 ± 7.5 % control. The “[3H]thymidine incorporation” value (HTC; albendazole 100 nM) was 86.0 ± 6.9 % control, the “[3H]thymidine incorporation” value (HTC; albendazole 500 nM) was 28.5 ± 2.2 % control and the “[3H]thymidine incorporation” value (HTC; albendazole 1000 nM) was 11.4 ± 1.3 % control. The “number of viable cells compared to control” value (SKHEP-1 cells; SKHEP-1, 1000 nM, p<0.001) was “significantly reduced in number”, the “number of viable cells” value (SKHEP-1 cells; SKHEP-1, 1, 3 or 5 days, 100, 500 or 1000 nM (FIG. 2)) was “dose dependent decline in the number of cells” and the “maximum proliferation index (MPI), Ki-67” value ([1]; 50 mg/kg dose) was 22.54±1.53. The “maximum proliferation index (MPI), Ki-67” value ([1]; 150 mg/kg dose) was 13.36±3.04, the mean tumor volume ([1]; 300 mg/kg dose oral in sesame oil, 20 days post inoculation, p<0.001) was 12.0±7.8 mm^3 and the tumor growth ([1]; 50 and 150 mg/kg per day oral) was “slightly but not significantly retarded”. For the same compound, the inhibition at 0.25 µM (NIH:OVCAR-3 [2]; Homo sapiens, 120 h, OVCAR-3, 0.25 micromoles/L, 5 days) was roughly 90%, the inhibition at 0.5 µM (NIH:OVCAR-3 [2]; Homo sapiens, 120 h, OVCAR-3, 0.5 micromoles/L, 5 days, read-out: inhibition of cell growth) was 100% and the “lowest concentration with an effect on cell proliferation” value (NIH:OVCAR-3 [2]; OVCAR-3, 5 days) was 0.001 µmol/L. For the same compound, the “inhibition of proliferation (3H-thymidine uptake)” value (NIH:OVCAR-3 [2]; OVCAR-3 in vitro (FIG. 5)) was “dose dependent inhibition of proliferation”, the “degree of activity relative to liver or colorectal cancer cells” value (NIH:OVCAR-3 [2]; OVCAR-3 versus liver or colorectal cancer cells, fold) was roughly 10 and the “number of viable cells” value (NIH:OVCAR-3 [3]) was “profound reduction in cell number”. The “DNA laddering (apoptosis)” value [4] was “induction of DNA laddering”, the “DNA laddering (apoptosis)” value (LOVO cells) was “clear laddering” and the growth inhibition (HepG2) was “no growth inhibition”. The thymidine incorporation (HCC cell lines) was “less than 20 % of control values”.

— patent US20050038022A1, “Method for treatment of cancer and compositions for use therein” (Unisearch Limited, priority 2001, published 2005)
